The values below come from US9169241B2, “Quinolinyloxyphenylsulfonamides” (Max-Planck-Gesellschaft Zur Forderung der Wissenschaften …, priority 2009, dated 2015).

Where only a bound is given, the exact number is not on record here.

Common to all, as to assay type: cell-based
The test system of one assay is SK-MEL28. Put plainly: Matrigel outgrowth assay/branching assay. To be noted: IC100, SK-MEL28; Table Vb. In a few lines:
(§1)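 Cells (5000/well) were seeded onto polymerized 3 mg/ml Matrigel with compound at 3.125, 1.56 or 0.78 μM, or DMSO. Imaging by inverted microscopy at 48, 72 and 96 h scored invasive branching. Only concentrations giving total branching inhibition counted as positive.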

For another assay, the system named is PC3. Put plainly: Matrigel outgrowth assay/branching assay. The settings on record: IC100, PC3; Table Vb. In a few lines:
as §1

A further assay relates to U87MG. Briefly: Matrigel outgrowth assay/branching assay. The settings on record: IC100, U87MG; Table Vb. In a few lines: as §1
Another assay has as its system U373. Put plainly: Matrigel outgrowth assay/branching assay. The settings on record: IC100, U373; Table Vb. In a few lines: as §1
The subject of the next assay is U138. Briefly: Matrigel outgrowth assay/branching assay. The settings on record: IC100, U138; Table Vb. In a few lines: as §1
The subject of another assay is NCI-H1299. Briefly: Matrigel outgrowth assay/branching assay. The settings on record: IC100, NCI-H1299; Table Vb. In a few lines:
as §1

Assay [1] addresses T1, wild type AXL (wtAXL) receptor tyrosine kinase (Homo sapiens, UniProt P30530).
T1 construct: WtAXL cDNA was cloned into vector pLXSN(ESK) and transfected into Phoenix E packaging cells; expressed in transfected cells; host or cells: NIH3T3 N7 (mouse fibroblasts), retrovirally infected, clone 22
T1 sequence (P30530 26-894): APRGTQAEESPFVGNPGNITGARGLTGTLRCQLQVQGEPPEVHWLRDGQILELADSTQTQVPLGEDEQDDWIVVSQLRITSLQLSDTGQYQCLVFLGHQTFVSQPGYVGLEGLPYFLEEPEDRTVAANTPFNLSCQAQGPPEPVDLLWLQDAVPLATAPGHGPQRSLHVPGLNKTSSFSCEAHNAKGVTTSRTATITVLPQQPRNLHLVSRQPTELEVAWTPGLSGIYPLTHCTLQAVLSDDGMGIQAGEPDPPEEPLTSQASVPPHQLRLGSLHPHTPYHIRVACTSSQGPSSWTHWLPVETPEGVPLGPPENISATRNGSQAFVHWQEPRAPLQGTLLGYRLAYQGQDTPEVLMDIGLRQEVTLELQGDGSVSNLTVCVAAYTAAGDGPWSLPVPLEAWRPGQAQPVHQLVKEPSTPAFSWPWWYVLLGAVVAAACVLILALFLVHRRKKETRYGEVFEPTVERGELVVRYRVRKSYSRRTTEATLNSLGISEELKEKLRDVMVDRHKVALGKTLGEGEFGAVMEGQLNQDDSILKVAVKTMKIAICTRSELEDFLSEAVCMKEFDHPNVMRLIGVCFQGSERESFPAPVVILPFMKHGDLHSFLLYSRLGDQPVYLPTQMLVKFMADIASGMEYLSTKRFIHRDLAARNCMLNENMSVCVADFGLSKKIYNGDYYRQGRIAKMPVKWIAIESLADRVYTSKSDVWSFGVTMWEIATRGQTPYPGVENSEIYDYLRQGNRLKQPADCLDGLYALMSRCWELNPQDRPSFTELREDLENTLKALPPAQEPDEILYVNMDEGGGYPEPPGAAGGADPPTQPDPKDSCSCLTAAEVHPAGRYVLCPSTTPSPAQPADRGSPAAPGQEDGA
Briefly: NIH-3T3-AXL cellular kinase assay (pY-AXL-ELISA). To be noted: NIH-3T3-AXL (clone 22) cells, serum depleted, compounds 1 h; Table Ia. In a few lines: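 NIH3T3 cells stably expressing human wild-type AXL (retroviral, puromycin-selected clones) were treated with serial compound dilutions for 1 h and lysed. AXL tyrosine phosphorylation was measured by ELISA on the lysates: biotinylated 4G10 anti-phosphotyrosine, streptavidin-alkaline phosphatase, AttoPhos fluorescence at 430/560 nm after 90 min.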
Background: ELISA stands for enzyme-linked immunosorbent assay.

Take `COc1cc2c(Oc3ccc(NS(=O)(=O)c4cc(F)ccc4F)cc3F)ccnc2cc1OCCCN1CCCCC1` [Example 1, 2,5-Difluoro-N-{3-fluoro-4-[6-methoxy-7-(3-piperidin-1-yl-propoxy)-quinolin-4-yloxy]-phenyl}-benzenesulfonamide]: in the assay with SK-MEL28, the “Total branching inhibition in Matrigel SK-MEL28” value was “++ (IC100≦12.5 μM)”. Further, the “Total branching inhibition in Matrigel PC3” value in the assay with PC3 was “++ (IC100≦12.5 μM)”. The “Total branching inhibition in Matrigel U87MG” value in the assay with U87MG is on record as “+ (IC100>12.5 μM)”. In addition, the “Total branching inhibition in Matrigel U373” value in the assay with U373 is listed as “++ (IC100≦12.5 μM)”. Also, the “Total branching inhibition in Matrigel U138” value in the assay with U138 is given as “++ (IC100≦12.5 μM)”. For the same compound, the “Total branching inhibition in Matrigel NCI-H1299” value in the assay on NCI-H1299 is reported as “++ (IC100≦12.5 μM)”.

Consider `COc1cc2c(Oc3ccc(NS(=O)(=O)c4cccc(Oc5ccccc5)c4)cc3F)ccnc2cc1OCCCN1CCN(C)CC1` [Example 14, N-(3-Fluoro-4-{6-methoxy-7-[3-(4-methyl-piperazin-1-yl)-propoxy]-quinolin-4-yloxy}-phenyl)-3-phenoxy-benzenesulfonamide], for which the “Total branching inhibition in Matrigel U138” value with U138 is “++ (IC100≦12.5 μM)”.

As to `COc1cc2c(Oc3ccc(NS(=O)(=O)c4ccccc4C(F)(F)F)cc3F)ccnc2cc1OCCCN1CCN(C)CC1` [Example 24, N-(3-Fluoro-4-{6-methoxy-7-[3-(4-methyl-piperazin-1-yl)-propoxy]-quinolin-4-yloxy}-phenyl)-2-trifluoromethyl-benzenesulfonamide], the “Total branching inhibition in Matrigel SK-MEL28” value with SK-MEL28 is given as “++ (IC100≦12.5 μM)”. Further, in the assay with PC3, the “Total branching inhibition in Matrigel PC3” value is reported as “++ (IC100≦12.5 μM)”. For the same compound, the “Total branching inhibition in Matrigel U87MG” value in the assay with U87MG is recorded as “+ (IC100>12.5 μM)”. The “Total branching inhibition in Matrigel U373” value in the assay on U373 was “++ (IC100≦12.5 μM)”. Also, the “Total branching inhibition in Matrigel U138” value with U138 is listed as “++ (IC100≦12.5 μM)”. Further, the “Total branching inhibition in Matrigel NCI-H1299” value in the assay on NCI-H1299 is reported as “++ (IC100≦12.5 μM)”.

One may read the IC50 as the concentration that gives 50% inhibition. A higher IC50 goes with lower potency. For `COc1cc2c(Oc3ccc(NS(=O)(=O)c4c(Cl)cccc4Cl)cc3F)ccnc2cc1OCCN1CCOCC1` [Example 104, 2,6-Dichloro-N-{3-fluoro-4-[6-methoxy-7-(2-morpholin-4-yl-ethoxy)-quinolin-4-yloxy]-phenyl}-benzenesulfonamide], in assay [1], the half-maximal inhibitory concentration (IC50) is less than 0.5 µM.

Compound `COc1cc2c(Oc3ccc(NS(=O)(=O)c4c(F)cccc4F)cc3F)ccnc2cc1OCCCN1CCN(C)CC1` [Example 110, 2,6-Difluoro-N-(3-fluoro-4-{6-methoxy-7-[3-(4-methyl-piperazin-1-yl)-propoxy]-quinolin-4-yloxy}-phenyl)-benzenesulfonamide] registered an IC50 in assay [1] of less than 0.5 µM.

As for `COc1cc2c(Oc3ccc(NS(=O)(=O)c4cc(F)ccc4F)cc3Cl)ccnc2cc1OCCCN1CCN(C)CC1` [Example 112, N-(3-Chloro-4-{6-methoxy-7-[3-(4-methyl-piperazin-1-yl)-propoxy]-quinolin-4-yloxy}-phenyl)-2,5-difluoro-benzenesulfonamide], the IC50 in assay [1] was less than 0.5 µM.

`COc1cc2c(Oc3ccc(NS(=O)(=O)c4c(Cl)cccc4Cl)cc3Cl)ccnc2cc1OCCCN1CCN(C)CC1` [Example 119, 2,6-Dichloro-N-(3-chloro-4-{6-methoxy-7-[3-(4-methyl-piperazin-1-yl)-propoxy]-quinolin-4-yloxy}-phenyl)-benzenesulfonamide] came in with an IC50 in assay [1] of less than 0.5 µM.

With `COC(=O)c1sccc1S(=O)(=O)Nc1ccc(Oc2ccnc3cc(OCCCN4CCCCC4)c(OC)cc23)c(F)c1` [Example 155, 3-{3-Fluoro-4-[6-methoxy-7-(3-piperidin-1-yl-propoxy)-quinolin-4-yloxy]-phenylsulfamoyl}-thiophene-2-carboxylic acid methyl ester], the IC50 in assay [1] was less than 0.5 µM.

As to `COC(=O)c1sccc1S(=O)(=O)Nc1ccc(Oc2ccnc3cc(OCCCN4CCC(C)CC4)c(OC)cc23)c(F)c1` [Example 156, 3-(3-Fluoro-4-{6-methoxy-7-[3-(4-methyl-piperidin-1-yl)-propoxy]-quinolin-4-yloxy}-phenylsulfamoyl)-thiophene-2-carboxylic acid methyl ester], the IC50 in assay [1] is less than 0.5 µM.

Take `COC(=O)c1sccc1S(=O)(=O)Nc1ccc(Oc2ccnc3cc(OCCCN4CCOCC4)c(OC)cc23)c(F)c1` [Example 157, 3-{3-Fluoro-4-[6-methoxy-7-(3-morpholin-4-yl-propoxy)-quinolin-4-yloxy]-phenylsulfamoyl}-thiophene-2-carboxylic acid methyl ester]: in assay [1], the 50% inhibitory concentration (IC50) is less than 0.5 µM.

On to `COC(=O)c1sccc1S(=O)(=O)Nc1ccc(Oc2ccnc3cc(OCCCN4CCN(C)CC4)c(OC)cc23)c(F)c1` [Example 158, 3-(3-Fluoro-4-{6-methoxy-7-[3-(4-methyl-piperazin-1-yl)-propoxy]-quinolin-4-yloxy}-phenylsulfamoyl)-thiophene-2-carboxylic acid methyl ester], for which, in assay [1], the IC50 was less than 0.5 µM.

`COc1cc2c(Oc3ccc(NS(=O)(=O)c4c(F)cccc4F)cc3F)ccnc2cc1OCCCN(C)C` [Example 178, N-{4-[7-(3-Dimethylamino-propoxy)-6-methoxy-quinolin-4-yloxy]-3-fluoro-phenyl}-2,6-difluoro-benzenesulfonamide] displayed a concentration for half-maximal inhibition (IC50) in assay [1] of less than 0.5 µM.

On to `COc1cc2c(Oc3ccc(NS(=O)(=O)c4ccccc4OC(F)(F)F)cc3F)ccnc2cc1OCCCN(C)C` [Example 179, N-{4-[7-(3-Dimethylamino-propoxy)-6-methoxy-quinolin-4-yloxy]-3-fluoro-phenyl}-2-trifluoromethoxy-benzenesulfonamide], for which the 50% inhibitory concentration (IC50) in assay [1] was less than 0.5 µM.

In turn, `COc1cc2c(Oc3ccc(NS(=O)(=O)c4c(Cl)cccc4Cl)cc3F)ccnc2cc1OCCCN(C)C` [Example 181, 2,6-Dichloro-N-{4-[7-(3-dimethylamino-propoxy)-6-methoxy-quinolin-4-yloxy]-3-fluoro-phenyl}-benzenesulfonamide] showed an IC50 in assay [1] of less than 0.5 µM.

Compound `COC(=O)c1sccc1S(=O)(=O)Nc1ccc(Oc2ccnc3cc(OCCCN(C)C)c(OC)cc23)c(F)c1` [Example 184, 3-{4-[7-(3-Dimethylamino-propoxy)-6-methoxy-quinolin-4-yloxy]-3-fluoro-phenylsulfamoyl}-thiophene-2-carboxylic acid methyl ester] displayed a concentration for half-maximal inhibition (IC50) in assay [1] of less than 0.5 µM.

For the compound `COc1cc2c(Oc3c(Cl)cc(NS(=O)(=O)c4c(F)cccc4F)cc3Cl)ccnc2cc1OCCCN1CCC(C)CC1` [Example 209, N-(3,5-Dichloro-4-{6-methoxy-7-[3-(4-methyl-piperidin-1-yl)-propoxy]-quinolin-4-yloxy}-phenyl)-2,6-difluoro-benzenesulfonamide], the IC50 in assay [1] is less than 0.5 µM.

In assay [1], `COc1cc2c(Oc3c(Cl)cc(NS(=O)(=O)c4ccccc4C(F)(F)F)cc3Cl)ccnc2cc1OCCCN1CCC(C)CC1` [Example 210, N-(3,5-Dichloro-4-{6-methoxy-7-[3-(4-methyl-piperidin-1-yl)-propoxy]-quinolin-4-yloxy}-phenyl)-2-trifluoromethyl-benzenesulfonamide] came in with an IC50 of less than 0.5 µM.
